# Laboratory results published in ChEMBL document CHEMBL4732067, “Synthesis and evaluation of new compounds bearing 3-(4-aminopiperidin-1-yl)methyl magnolol scaffold as anticancer agents for the treatment of non-small cell lung cancer via targeting autophagy” (Eur J Med Chem, 2021).
# Active and inactive are the calls of the source. No cut-off for these calls is given here.
# Experiments:
# HCC827 = experiment: Antiproliferative activity against human HCC827 cells assessed as reduction in cell viability after 72 hrs by MTT assay; assay type: functional, cell-based; details: HCC827, 72 h
# NCI-H460 [1] = experiment: Antiproliferative activity against human NCI-H460 cells assessed as reduction in cell viability after 72 hrs by MTT assay; assay type: functional, cell-based; details: NCI-H460, 72 h
# A549 = experiment: Antiproliferative activity against human A549 cells expressing wild type EGFR assessed as reduction in cell viability after 72 hrs by MTT assay; assay type: functional, cell-based; details: A549, 72 h
# [2] = Antiproliferative activity against human SPCA1 cells expressing wild type EGFR assessed as reduction in cell viability after 72 hrs by MTT assay; assay type: functional, cell-based; details: SPCA1, 72 h
# NCI-H1650 = experiment: Antiproliferative activity against human NCI-H1650 cells expressing EGFR mutant assessed as reduction in cell viability after 72 hrs by MTT assay; assay type: functional, cell-based; details: NCI-H1650, 72 h
# NCI-H441 = experiment: Antiproliferative activity against human NCI-H441 cells […] assessed as reduction in cell viability after 72 hrs by MTT assay; assay type: functional, cell-based; details: NCI-H441, 72 h
# [3] = Metabolic stability in human liver microsomes assessed as half life; assay type: ADME, Microsome
# [4] = Metabolic stability in human liver microsomes assessed as intrinsic clearance per gram protein; assay type: ADME, Microsome
# [5] = Antitumor activity against mouse C26 cells xenografted in BALB/c mouse assessed as tumor growth inhibition at 50 mg/kg, po administered once daily and measured every two days by caliper method relative to control; assay type: functional; details: 48 h, read-out: TGI
# [6] = Toxicity in nude BALB/c mouse xenografted with C26 cells assessed as change in body weight at 50 mg/kg, po administered once daily and measured every two days; assay type: organism-based; details: in vivo
# [7] = Toxicity in nude BALB/c mouse xenografted with C26 cells assessed as abnormalities in kidney size and morphology at 50 mg/kg, po administered once daily; assay type: organism-based; details: in vivo
# [8] = Toxicity in nude BALB/c mouse xenografted with C26 cells assessed as abnormalities in lung size and morphology at 50 mg/kg, po administered once daily; assay type: organism-based; details: in vivo
# [9] = Toxicity in nude BALB/c mouse xenografted with human NCI-H460 cells assessed as abnormalities in tissue at 20 to 40 mg/kg, po administered once daily; assay type: organism-based; details: in vivo, dose 20-40 mg/kg
# NCI-H460 [10] = experiment: Induction of cell cycle arrest in human NCI-H460 cells assessed as accumulation at S phase at 0.5 uM incubated for 24 hrs by propidium iodide staining based flow cytometry (reference value: 29.32 %); assay type: functional
# NCI-H460 [11] = experiment: Induction of cell cycle arrest in human NCI-H460 cells assessed as accumulation at G2/M phase at 1 uM incubated for 24 hrs by propidium iodide staining based flow cytometry (reference value: 16.71 %); assay type: functional
# NCI-H460 [12] = experiment: Induction of cell cycle arrest in human NCI-H460 cells assessed as accumulation at S phase at 1 uM incubated for 24 hrs by propidium iodide staining based flow cytometry (reference value: 29.32 %); assay type: functional
# NCI-H460 [13] = experiment: Induction of cell cycle arrest in human NCI-H460 cells assessed as accumulation at G2/M phase at 5 uM incubated for 24 hrs by propidium iodide staining based flow cytometry (reference value: 16.71 %); assay type: functional
# NCI-H460 [14] = experiment: Induction of cell cycle arrest in human NCI-H460 cells assessed as accumulation at S phase at 5 uM incubated for 24 hrs by propidium iodide staining based flow cytometry (reference value: 29.32 %); assay type: functional
# NCI-H460 [15] = experiment: Induction of apoptosis in human NCI-H460 cells assessed as late apoptotic cells at 1 uM after 48 hrs by Annexin V-FITC/propidium iodide staining based flow cytometric analysis (reference value: 3.995 %); assay type: functional
# NCI-H460 [16] = experiment: Induction of apoptosis in human NCI-H460 cells assessed as viable cells at 2 uM after 48 hrs by Annexin V-FITC/propidium iodide staining based flow cytometric analysis (reference value: 91.528 %); assay type: functional; details: read-out: Activity
# NCI-H460 [17] = experiment: Induction of apoptosis in human NCI-H460 cells assessed as early apoptotic cells at 2 uM after 48 hrs by Annexin V-FITC/propidium iodide staining based flow cytometric analysis (reference value: 3.980 %); assay type: functional
# NCI-H460 [18] = experiment: Induction of apoptosis in human NCI-H460 cells assessed as late apoptotic cells at 2 uM after 48 hrs by Annexin V-FITC/propidium iodide staining based flow cytometric analysis (reference value: 3.995 %); assay type: functional
# NCI-H460 [19] = experiment: Induction of apoptosis in human NCI-H460 cells assessed as viable cells at 5 uM after 48 hrs by Annexin V-FITC/propidium iodide staining based flow cytometric analysis (reference value: 91.528 %); assay type: functional; details: read-out: Activity
# NCI-H460 [20] = experiment: Induction of apoptosis in human NCI-H460 cells assessed as early apoptotic cells at 5 uM after 48 hrs by Annexin V-FITC/propidium iodide staining based flow cytometric analysis (reference value: 3.980 %); assay type: functional
# NCI-H460 [21] = experiment: Induction of apoptosis in human NCI-H460 cells assessed as late apoptotic cells at 5 uM after 48 hrs by Annexin V-FITC/propidium iodide staining based flow cytometric analysis (reference value: 3.995 %); assay type: functional
# NCI-H460 [22] = experiment: Induction of apoptosis in human NCI-H460 cells assessed as viable cells at 10 uM after 48 hrs by Annexin V-FITC/propidium iodide staining based flow cytometric analysis (reference value: 91.528 %); assay type: functional; details: read-out: Activity
# NCI-H460 [23] = experiment: Induction of apoptosis in human NCI-H460 cells assessed as early apoptotic cells at 10 uM after 48 hrs by Annexin V-FITC/propidium iodide staining based flow cytometric analysis (reference value: 3.980 %); assay type: functional
# NCI-H460 [24] = experiment: Induction of apoptosis in human NCI-H460 cells assessed as late apoptotic cells at 10 uM after 48 hrs by Annexin V-FITC/propidium iodide staining based flow cytometric analysis (reference value: 3.995 %); assay type: functional
# NCI-H460 [25] = experiment: Induction of apoptosis in human NCI-H460 cells assessed as necrotic cells at 10 uM after 48 hrs by Annexin V-FITC/propidium iodide staining based flow cytometric analysis (reference value: 0.498 %); assay type: functional
# NCI-H460 [26] = experiment: Induction of apoptosis in human NCI-H460 cells assessed as increase in cleaved caspase 3 expression level after 48 hrs by Western blot analysis; assay type: functional, cell-based; details: dose 0.5-10 µM
# NCI-H460 [27] = experiment: Induction of autophagy in human NCI-H460 cells assessed as up regulation of LC3-2 protein expression after 24 hrs by Western blot analysis; assay type: functional, cell-based; details: dose 0.5-10 µM
# NCI-H460 [28] = experiment: Induction of autophagy in human NCI-H460 cells assessed as up regulation of Beclin 1 protein expression after 24 hrs by Western blot analysis; assay type: functional, cell-based; details: dose 0.5-10 µM
# NCI-H460 [29] = experiment: Induction of autophagy in human NCI-H460 cells assessed as degradation of SQSTM1/p62 at 0.5 to 10 uM measured after 24 hrs by Western blot analysis; assay type: functional, cell-based; details: dose 0.5-10 µM
# NCI-H460 [30] = experiment: Antitumor activity against human NCI-H460 cells xenografted in nude BABL/c mouse assessed as tumor growth inhibition at 20 mg/kg, po administered once daily and measured every two days in presence of chloroquine diphosphate by caliper method relative to control; assay type: functional; details: 48 h, read-out: TGI
# NCI-H460 [31] = experiment: Antitumor activity against human NCI-H460 cells xenografted in nude BABL/c mouse assessed as upregulation of LC3-II expression in tumor tissue at 20 mg/kg, po administered once daily in presence of chloroquine diphosphate by Western blot analysis; assay type: functional, organism-based
compound,measurement,setting,value
C=CCc1ccc(OC(C)C)c(-c2cc(CC=C)cc(CN3CCC(N)CC3)c2O)c1,IC50,HCC827,630 nM
same,IC50,NCI-H460 [1],860 nM
same,IC50,A549,910 nM
same,IC50,[2],1080 nM
same,IC50,NCI-H1650,820 nM
same,IC50,NCI-H441,940 nM
same,half-life,[3],2.62 h
same,CLint,[4],8.8 mL/min/g
same,inhibition in vivo at 50 mg/kg,[5],65.4%
same,Activity,[6],Toxic
same,Activity,[7],Non-Toxic
same,Activity,[8],Non-Toxic
same,Activity,[9],Non-Toxic
same,Activity,NCI-H460 [10],23.58%
same,Activity,NCI-H460 [11],19.64%
same,Activity,NCI-H460 [12],23.89%
same,Activity,NCI-H460 [13],17.5%
same,Activity,NCI-H460 [14],22.61%
same,Activity,NCI-H460 [15],3.979%
same,viability at 2 µM,NCI-H460 [16],88.8%
same,Activity,NCI-H460 [17],5.363%
same,Activity,NCI-H460 [18],4.926%
same,viability at 5 µM,NCI-H460 [19],53.5%
same,Activity,NCI-H460 [20],30.087%
same,Activity,NCI-H460 [21],15.76%
same,viability at 10 µM,NCI-H460 [22],30%
same,Activity,NCI-H460 [23],34.82%
same,Activity,NCI-H460 [24],33.48%
same,Activity,NCI-H460 [25],1.58%
same,Activity,NCI-H460 [26],Dose-dependent effect
same,Activity,NCI-H460 [27],Dose-dependent effect
same,Activity,NCI-H460 [28],Dose-dependent effect
same,Activity,NCI-H460 [29],Active
same,inhibition in vivo at 20 mg/kg,NCI-H460 [30],55.9%
same,Activity,NCI-H460 [31],Active
